pIC50: −log10 of the molar value. Read-outs that look alike come from different tables or passages of the source.
How the values were obtained:
Type in all cases: cell-based
SF-268 = assay: Cell viability assay, SF-268; details: brain carcinoma cell line SF-268
Description: (§1) Antitumor activity of the compounds and doxorubicin as a positive control was assessed by using the CellTiter-Blue Cell Viability Assay (Promega, #G8082) or CellTiter-Glow® Luminescent Cell Viability assay (Promega #G7572) according to the manufacturer's instructions. The compounds were tested at 5 or 6 concentrations in half-log increments (highest concentration 30 μM or 100 μM) in duplicate or triplicate well conditions.
(§2) Tumor cells were grown at 37° C. in a humidified atmosphere with 5% CO2 in RPMI 1640 or DMEM medium, supplemented with 10% (v/v) fetal calf serum and 50 μg/ml gentamicin for up to 20 passages, and were passaged once or twice weekly. Cells were harvested using TrypLE or PBS buffer containing 1 mM EDTA, and the percentage of viable cells was determined using a CASY Model TI cell counter (OMNI Life Science). Cells were harvested from exponential phase cultures, counted and plated in 96 well flat-bottom microtiter plates at a cell density depending on the cell line's growth rate (4,000-20,000 cells/well depending on the cell line's growth rate, up to 60,000 for hematological cancer cell lines) in RPMI 1640 or DMEM medium supplemented with 10% (v/v) fetal calf serum and 50 μg/ml gentamicin (140 μl/well). […] Viability of cells was quantified by the CellTiter-Blue® cell viability assay (Promega G8081) or CellTiter-Glow® Luminescent Cell Viability assay (Promega #G7572). […]

MDA-MB-468 = assay: Cell viability assay, MDA-MB-468; details: breast carcinoma cell line MDA-MB-468
Description: as §1, §2

BR-05-0014E = assay: Cell viability, breast PDX BR-05-0014E
Description: (§3) PDX-derived cell cultures were obtained from tumors explanted from mice and isolated by mechanical and enzymatic dissociation. […] Cells were harvested and seeded in 96-wells plates at a density of 1.25 to 5×10^3 cells/well for cytotoxicity assays. Cells were incubated 48 h at 37° C. prior to addition of test molecules and vehicle (DMSO, 0.1%) at desired final concentrations. Cell viability was assessed before drugs' addition (To) and 5 days after test molecules addition by measuring ATP cell content using CellTiter-Glo® Luminescent Cell Viability Assay (Promega) according to the manufacturer's instructions. Luciferase activity was measured on a luminometer (PerkinElmer® EnVision™). Each concentration of compounds was tested in triplicate.
(§4) Viability was calculated as a percentage of ATP value compared to vehicle treated controls.
(§5) For PDX primary cell cultures, the tumour tissue was washed with PBS containing antibiotic-antimycotic and non-tumour tissue and necrotic tumour tissues were separated. The tumour tissue was transferred to a new dish and cut into 1˜2 mm^3 fragments, resuspended in RPMI-1640 medium and centrifuged at 1,200 rpm for 6 min at room temperature. The pelleted material was resuspended with 15 mL of Tumour Cell Digestion Solution and incubated at 37° C. for 1 hour with agitation. […]

LU-01-0027 = assay: Cell viability, lung PDX LU-01-0027
Description: as §3, §4, §5

22Rv1 = assay: Cell viability assay, 22Rv1; details: prostate carcinoma cell line 22Rv1
Description: as §1, §2

HCT-15 = assay: Cell viability assay, HCT-15; details: colon carcinoma cell line HCT-15
Description: as §1, §2

ONCap = assay: Cell viability assay, ONCap; details: prostate carcinoma cell line ONCap
Description: as §1, §2

LU-01-0604 = assay: Cell viability, lung PDX LU-01-0604
Description: as §3, §4, §5

EN-11-0101 = assay: Cell viability, endometrial PDX EN-11-0101
Description: as §3, §4
(§6) For PDX primary cell cultures, the tumour tissue was washed with PBS containing antibiotic-antimycotic and non-tumour tissue and necrotic tumour tissues were separated. The tumour tissue was transferred to a new dish and cut into 1˜2 mm^3 fragments, resuspended in RPMI-1640 medium and centrifuged at 1,200 rpm for 6 min at room temperature. The pelleted material was resuspended with 15 mL of Tumour Cell Digestion Solution and incubated at 37° C. for 1 hour with agitation. Following further addition of media, centrifugation and passage through a 70 μm cell strainer, the homogenous cell mixture was layered onto 15 mL of Ficoll-Paque PLUS in a 50 mL conical tube and centrifuged for 15 min at 1,600 rpm. The interface cells were collected, washed with media, separated by centrifugation at 1,200 rpm. The cell pellet was resuspended in serum free media supplemented with growth factors. 10,000 cells/wells were plated in a 96 well plate and incubated at 37° C., 5% CO2, 95% air and 100% relative humidity overnight. The cytotoxicity assay was conducted as above.
(§7) Sigmoidal concentration-response curves were fitted to the data points (test-versus-control, T/C values) obtained for each tumor model using GraphPad prism 5.02 software.

ST-02-0173 = assay: Cell viability, stomach PDX ST-02-0173
Description: as §3, §4, §5

KM-12 = assay: Cell viability assay, KM-12; details: colon carcinoma cell line KM-12
Description: as §1, §2

CH-17-0098 = assay: Cell viability, bile duct PDX CH-17-0098
Description: as §3, §4, §5

LoVo = assay: Cell viability assay, LoVo; details: colon carcinoma cell line LoVo
Description: as §1, §2

CO-04-0700 = assay: Cell viability, colon PDX CO-04-0700
Description: as §3, §4, §5

CO-04-0722 = assay: Cell viability, colon PDX CO-04-0722
Description: as §3, §4, §5

OVCAR-3 = assay: Cell viability assay, OVCAR-3; details: ovarian carcinoma OVCAR-3
Description: as §1, §2

ES-06-0002 = assay: Cell viability, esophagus PDX ES-06-0002
Description: as §3, §4, §5

LY-24-0340 = assay: Cell viability, lymphoma PDX LY-24-0340
Description: as §3, §4, §6, §7

HN-13-0020 = assay: Cell viability, head and neck PDX HN-13-0020
Description: as §3, §4, §6, §7

[1] = endometrial PDX EN-11-0101, read-out: IC50
[2] = lymphoma PDX LY-24-0340, read-out: IC50
[3] = head and neck PDX HN-13-0020, read-out: IC50

| Compound | pIC50 (BR-05-0014E) | pIC50 (LU-01-0027) | pIC50 (ONCap) | pIC50 (LU-01-0604) | pIC50 (EN-11-0101; [1]) | pIC50 (ST-02-0173) | pIC50 (CH-17-0098) | pIC50 (CO-04-0700) | pIC50 (CO-04-0722) | pIC50 (ES-06-0002) | pIC50 (LY-24-0340; [2]) | pIC50 (HN-13-0020; [3]) | further results |
| --- | --- | --- | --- | --- | --- | --- | --- | --- | --- | --- | --- | --- | --- |
| COc1c(O)ccc2c(=O)c(O)c(-c3ccc(CCCC[P+](c4ccccc4)(c4ccccc4)c4ccccc4)cc3)oc12 [SND190, (4-(4-(3,7-Dihydroxy-8-methoxy-4-oxo-4H1-chromen-2-yl)phenyl)butyl)triphenylphosphonium bromide] | 5.18 | 5.40 | 5.82 | 5.70 | 5.10 | 4.96 | 5.40 | 5.62 | 5.36 | 5.31 | 5.42 | 5.65 | pIC50 (SF-268; Homo sapiens): 5.39; pIC50 (MDA-MB-468; Homo sapiens): 6.52; pIC50 (22Rv1; Homo sapiens): 6.10; pIC50 (HCT-15; Homo sapiens): 4.83; pIC50 (EN-11-0101; Table 8, read-out: IC50, endometrial PDX growth): > 4.70; pIC50 (KM-12; Homo sapiens, KM12): 5.77; pIC50 (LoVo; Homo sapiens): 5.60; pIC50 (OVCAR-3; Homo sapiens): 5.42; pIC50 (LY-24-0340; Table 16, read-out: IC50, lymphoma PDX growth): > 5.30; pIC50 (HN-13-0020; summary of Table 10, read-out: IC50, head and neck PDX growth): > 5.30 |
| O=c1cc(-c2ccc(CCC[P+](c3ccccc3)(c3ccccc3)c3ccccc3)cc2)oc2c(O)c(O)ccc12 [SND200, (3-(4-(7,8-Dihydroxy-4-oxo-4H1-chromen-2-yl)phenyl)propyl)triphenylphosphonium bromide] | 4.72 | 5.74 | 6.28 | 5.11 | 4.98 | 4.81 | 5.12 | 5.12 | 5.01 | 4.94 | 5.40 | 5.39 | pIC50 (SF-268): 5.11; pIC50 (MDA-MB-468): 6.52; pIC50 (22Rv1): 6.38; pIC50 (HCT-15): 5.13; pIC50 (KM-12): 6.36; pIC50 (LoVo): 6.19; pIC50 (OVCAR-3): 5.80 |

Reference: patent US20240124503A1, “HETEROAROMATIC PHOSPHONIUM SALTS AND THEIR USE TREATING CANCER” (FLORATEK PHARMA S.A., priority 2021, published 2024)
